Tests used:
[1] = tested on: alpha6p; experiment: Abundance of alpha6p on DU145H cells with exogenous agents; assay type: cell-based, human; conditions: data not shown
[2] = tested on: alpha6p integrin protein levels; experiment: Calcium-induced terminal differentiation assay, Western blot with AA6A; assay type: cell-based; conditions: 291 nontransformed mouse keratinocytes, 24 h, dose-dependent (0.04 to 1.4 mM calcium)
Procedure: Cell Lines. All human cell lines were incubated at 37° C. in a humidified atmosphere of 95% air and 5% CO2. Cell lines DU145H, HaCaT, and PC3-N were grown in Iscove's modified Dulbecco's medium (Invitrogen Corporation, Carlsbad, Calif.; formerly Life Technologies, Inc.) plus 10% fetal bovine serum. Cell lines MCF-7, PC3-ATCC, LnCap, and H69 were grown in Dulbecco's modified Eagle's medium (Invitrogen Corporation, Carlsbad, Calif.; formerly Life Technologies, Inc.) plus 10% fetal bovine serum. SW480 cells were grown in super medium (Dulbecco's modified Eagle's medium plus 5% nonessential amino acids, 5% L-glutamine, 5% sodium pyruvate, 10% fetal bovine serum). Normal prostate cells, PrEC, were grown in PrEGM bullet kit medium (Clonetics, San Diego, Calif.). […]
Mouse 291 normal keratinocyte terminal differentiation can be induced by calcium. […] The presence of alpha6 and alpha6p integrins in normal 291 mouse keratinocytes was determined using whole cell lysates followed by Western blot analysis using anti-alpha6 integrin antibody, AA6A (FIG. 10A). […] The alpha6 and alpha6p integrin protein bands were quantitated using Scion Image (Cress (2000) BioTechniques 29:776-781), and the results were graphed (FIG. 10B). […]

[3] = tested on: DU145H cells; experiment: Surface half-life by biotinylation strategy; assay type: cell-based, human
Procedure: Surface Biotinylation of Cell Lines. Previous published protocols (Isberg and Leong (1990) Cell 60:861-871; Einheber et al. (1993) J. Cell Biol. 123:1223-1236) were slightly modified. Briefly, cells were grown to confluency in 100-mm tissue culture dishes and washed three times with HEPES buffer (20 mM HEPES, 130 mM NaCl, 5 mM KCl, 0.8 mM MgCl2, 1.0 mM CaCl2, pH 7.45). The cells were then incubated with 2 ml of HEPES buffer supplemented with sulfosuccinimidyl hexanoate-conjugated biotin (500 μg/ml; Pierce), which is impermeable to cell membranes (Staros (1982) Biochemistry 21:3950-3), to label cell surface proteins for 30 min at 4° C. The cells were washed three times and lysed in cold radioimmune precipitation buffer plus protease inhibitors (phenylmethylsulfonyl fluoride, 2 mM; leupeptin and aprotinin, 1 μg/ml). The lysate was briefly sonicated on ice before centrifugation at 10,000 rpm for 10 min, and the supernatant was collected for immunoprecipitations.
To determine if the novel alpha6p variant was a degradation product of the alpha6 integrin that would be rapidly cleared from the surface, the surface half-life of both integrins was examined using a biotinylation strategy. […] After 24, 48, or 72 h, the integrins were immunoprecipitated using the GoH3 antibody and analyzed under non-reducing conditions (FIG. 8, panel A).

Molecule	influence on abundance of alpha6p [1]	other results
CCCCCCCCCCCCCC(=O)O[C@@H]1[C@@H](C)[C@@]2(O)[C@@H](C=C(CO)C[C@]3(O)C(=O)C(C)=C[C@@H]23)[C@@H]2C(C)(C)[C@]12OC(C)=O [12-O-tetradecanoylphorbol-13-acetate]	not influenced	
CNC(=O)[C@H](Cc1ccccc1)NC(=O)[C@H](CC(C)C)[C@H](CSc1cccs1)C(=O)NO [BB94]	not influenced	
kallikrein	not influenced	
[Ca+2] [Calcium, calcium]		increase of alpha6p integrin protein levels [2]: 3 fold
aprotinin	not influenced	
ecotin: exogenous protease inhibitor	not influenced	
CC(=O)N[C@@H](CC(C)C)C(=O)N[C@@H](CC(C)C)C(=O)N[C@H](C=O)CCCNC(=N)N [leupeptin]	not influenced	
[Ca+2].[Cl-].[Cl-] [CaCl2]	not influenced	
alpha6p: 70-kDa, naturally occurring truncated form of the alpha6 integrin (protein) VNSLPEVLPILNSNEAKTVQTDVHFLKEGCGDDNVCNSNLKLEYKFGTREGNQDKFSYLPIQKGIPELVLKDQKDIALEITVTNSPSDPRNPRKDGDDAHEAKLIATFPDTLTYSAYRELRAFPEKQLSCVANQNGSQADCELGNPFKRNSSVTFYLILSTTEVTFDTTDLDINLKLETTSNQDNLAPITAKAKVVIELLLSVSGVAKPSQVYFGGTVVGEQAMKSEDEVGSLIEYEFRVINLGKPLKNLGTATLNIQWPKEISNGKWLLYLMKVESKGLEQIVCEPHNEINYLKLKESHNSRKKRELPEKQIDDSRKFSLFPERKYQTLNCSVNVRCVNIRCPLRGLDSKASLVLRSRLWNSTFLEEYSKLNYLDILLRASIDVTAAAQNIKLPHAGTQVRVTVFPSKTVAQYSGVAWWIILLAVLAGILMLALLVFLLWKCGFFKRSRYDDSIPRYHAVRIRKEEREIKDEKHMDNLEKKQWITKWNENESYS		surface half-life relative to full-length alpha6 integrin ([3]; surface of DU145H cells): ~3 times; half-life on the cell surface ([3]; surface of DU145H cells, 24, 48, 72 h after biotinylation): ~72 h

Reference: patent US20030219837A1, “Integrin ligand” (priority 2002, published 2003)
